From the supplement of paper PMC5412046
Counter-ions that a name gives are not always drawn.

Test system: SB.msgc-1
Test: AC50 for growth inhibition (viability) (log10 M); higher = less potent
Conditions: SB.msgc-1 (sporadic gastric cancer)
Method in brief: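 Values are log half-maximal activity concentrations from four-parameter fits of DMSO-normalised viability, restricted to high-quality curve classes. Patient-derived gastric cancer cells, hereditary or sporadic, were plated at 500 cells per 1536 well in 5 μL medium and given 23 nL compound in DMSO by pintool across 11 threefold dilutions, the top final concentration being 46 μM. Viability was read by ViewLux luminescence after 48 h and a 30 min CellTiter-Glo step at room temperature.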

Row | Compound | AC50 for growth inhibition (log10 M)
1 | CC[C@@H]1C(=O)N(C)c2cnc(Nc3ccc(C(=O)NC4CCN(C)CC4)cc3OC)nc2N1C1CCCC1 [BI-2536] | -7.28
2 | Nc1nc(N)c2nc(-c3cccc(O)c3)c(-c3cccc(O)c3)nc2n1 | -5.18
3 | C[C@@H]1O[C@@H](O[C@H]\2CC[C@]\3(C)[C@@H]4CC[C@]5(C)[C@@H](CC[C@@]5(O)[C@H]4CCC3=C2)C/6=C/OC(=O)/C=C6)[C@H](O)[C@H](O)[C@@H]1O [Proscillaridin] | -7.68
4 | N=C(N)c1ccc(OCCCCCOc2ccc(C(=N)N)cc2)cc1 [Pentamidine isethionate] | -4.83
5 | CCc1cccc(CC)c1NC(=O)N1Cc2[nH]nc(NC(=O)c3ccc(N4CCN(C)CC4)cc3)c2C1 | -4.63
6 | S=C1N\C=N/C2=C1[NH]C=N2 [6-mercaptopurine] | -5.63
7 | CO[C@H]1/C=C/O[C@@]2(C)Oc3c(C)c(O)c4c(c3C2=O)C2=NC3(CCN(CC(C)C)CC3)NC2=C(NC(=O)/C(C)=C\C=C\[C@H](C)[C@H](O)[C@@H](C)[C@@H](O)[C@@H](C)[C@H](OC(C)=O)[C@@H]1C)C4=O [Rifabutin] | -4.63
8 | CCCCCCCCOc1ccccc1C(=O)Nc1ccc(C(=O)OCC[N+](C)(CC)CC)cc1 [Octylonium bromide] | -4.68
9 | NC12CC3CC(CC(C3)C1)C2 [Amantadine hydrochloride] | -4.68
10 | CNC(=O)C1=CC=C(C)C(=C1)N2C(=C/C(=C(/Br)C2=O)OCC3=C(F)C=C(F)C=C3)\C | -4.98
11 | OC1=CC2=C(C=C1)C(=O)\C(=C(O2)\C3=CC(=C(O)C=C3)O)O [Fisetin] | -4.63
12 | CN(CCOc1ccc(CC2SC(=O)NC2=O)cc1)c1ccccn1 (stereo not given) [Rosiglitazone] | -5.18
13 | CSCC[C@H](NC(=O)[C@H](Cc1c[nH]c2ccccc12)NC(=O)CCNC(=O)OC(C)(C)C)C(=O)N[C@@H](CC(=O)O)C(=O)N[C@@H](Cc1ccccc1)C(N)=O [Pentagastrin] | -5.28
14 | O=C(NCc1ccncc1)C12C[C@H]3C[C@@H](C1)CC(c1ccc(Cl)cc1)(C3)C2 | -4.98
15 | C[S+](=O)([O-])N(Cc1ccco1)CC(O)Cn1c2ccccc2c2ccccc21 (stereo not given) [KL001] | -4.68
16 | Clc1ccccc1C(c1ccccc1)(c1ccccc1)n1ccnc1 [Clotrimazole] | -4.83
17 | C[C@H](Cc1ccc(O)c(O)c1)[C@@H](C)Cc1ccc(O)c(O)c1 [Masoprocol] | -4.83
18 | O=C(Nc1cc(Cl)cc2c1[nH]c1cnccc12)c1cccnc1 [PS-1145] | -4.73
19 | CC(=O)[C@H]1CC[C@H]2[C@@H]3CCC4=CC(=O)CC[C@]4(C)[C@H]3CC[C@]12C [Progesterone] | -4.78
20 | N[S+](=O)([O-])OC[C@@H]1C[C@@H](n2ccc3c(N[C@H]4CCc5ccccc54)ncnc32)C[C@@H]1O [MLN-4924] | -5.48
21 | Oc1nc(-c2ccc(C(F)(F)F)cc2)nc2c1CSCC2 [NVP-XAV-939] | -4.68
22 | OC1=C(Cl)C=C(N\C2=C(\C(=O)NC2=O)C3=C(C=CC=C3)[N+]([O-])=O)C=C1 | -4.88

Row | Compound | AC50 for growth inhibition (log10 M)
23 | O=C(O)[C@@H](c1ccc(OCc2ccc3ccccc3n2)cc1)C1CCCC1 [Veliflapon] | -5.18
24 | CCCCCNC(=N)N/N=C/c1c[nH]c2ccc(OC)cc12 [Tegaserod maleate] | -5.13
25 | O=c1[nH]c2ccccc2n1C1CCN(Cc2ccc(-c3nc4cc5nc[nH]c5cc4nc3-c3ccccc3)cc2)CC1 [AKT inhibitor VIII] | -4.83
26 | Cc1ccc([S+](=O)([O-])Nc2nc3ccccc3nc2Nc2ccc3nsnc3c2)cc1 [XL-147] | -6.19
27 | N#CC(c1ccnc(NCCc2cccnc2)n1)c1nc2ccccc2s1 (stereo not given) [JNK Inhibitor V] | -4.73
28 | CN1C(=O)/C(=C(NC2=CC=C(I)C=C2F)\C3=C1\N=C/N(C[C@@H](O)CO)C3=O)F [TAK-733] | -6.48
29 | CNC(=O)c1cc(Oc2ccc(NC(=O)Nc3cc(C(C)(C)C)nn3-c3ccc4ncccc4c3)c(F)c2)ccn1 [DCC-2036] | -5.63
30 | Cc1ccc(-c2cc(C(F)(F)F)nn2-c2ccc([S+](N)(=O)[O-])cc2)cc1 [Celecoxib] | -4.78
31 | Clc1ccc(-c2nc3sccn3c2/C=N/OCc2ccc(Cl)c(Cl)c2)cc1 [CITCO] | -4.73
32 | CCCCC(F)(F)[C@@]1(O)CC[C@H]2[C@@H](CC(=O)[C@@H]2CCCCCCC(=O)O)O1 [Lubiprostone] | -4.78
33 | N[C@@H](Cc1c[nH]c2ccc(O)cc12)C(=O)O [5-Hydroxytryptophan] | -4.68
34 | Clc1ccc(C(Cn2ccnc2)OCc2ccsc2Cl)c(Cl)c1 (stereo not given) [Tioconazole] | -4.63
35 | C/C=C(/C(=C/C)c1ccc(O)cc1)c1ccc(O)cc1 [Dienestrol] | -5.08
36 | CC(C)c1c(C(=O)Nc2ccccc2)c(-c2ccccc2)c(-c2ccc(F)cc2)n1CC[C@@H](O)C[C@@H](O)CC(=O)[O-] [Atorvastatin calcium] | -4.68
37 | Cc1ccccc1C(C(=O)NC1CCCC1)N(C(=O)Cn1cnc2ccccc21)c1cccc(F)c1 (stereo not given) | -4.63
38 | Cn1ccc2cc3c(cc21)CCN3C(=O)Nc1cccnc1 | -5.03
39 | CNC(=O)CN1CCC(Oc2cc3c(Nc4cccc(Cl)c4F)ncnc3cc2OC)CC1 [Sapitinib] | -7.98
40 | CN(C)CCN(Cc1ccc(Cl)cc1)c1ccccn1.Cl [Halopyramine] | -4.68
41 | Cc1c(C(=O)Nc2ccc(N3C[C@@H](C)O[C@@H](C)C3)nc2)cccc1-c1ccc(OC(F)(F)F)cc1 [NVP-LDE-225] | -4.83
42 | CC(C)c1cc(C(C)C)c(CC(=O)N[S+](=O)([O-])Oc2c(C(C)C)cccc2C(C)C)c(C(C)C)c1 [Avasimibe] | -4.78
43 | COc1ccc(CCC(=O)Nc2nc3ccc(Cl)cc3s2)cc1OC | -4.63
44 | COc1cccc(OC)c1-c1cc(C(=O)NC2(C(=O)O)C3CC4CC(C3)CC2C4)nn1-c1ccnc2cc(Cl)ccc12 (stereo not given) [Meclinertant] | -4.68

Row | Compound | AC50 for growth inhibition (log10 M)
45 | COC(=O)Nc1nc2ccc([S+]([O-])c3ccccc3)cc2[nH]1 (stereo not given) [Oxfendazole] | -4.63
46 | Cc1csc(NC(=O)c2sc3nc4c(c(C(F)(F)F)c3c2N)CCC4)n1 [Irestatin 9389] | -4.68
47 | CCOC(=O)c1c(CSc2ccccc2)n(C)c2cc(Br)c(O)c(CN(C)C)c12 [Arbidol] | -4.63
48 | COCC1(CO)C(=O)C2CCN1CC2 (stereo not given) [APR-246] | -4.88
49 | Cc1cc2c(cc1C1(c3ccc(C(=O)O)cn3)CC1)C(C)(C)CCC2(C)C | -4.73
50 | COCCOC(=O)C/1=C(C)/NC/2=C(C1C3=CC=CC(=C3)O)/C(=O)CC(C2)C4=C(OC)C=CC=C4 (stereo not given) [HPI-1] | -4.73
51 | CCC[S+](=O)([O-])Nc1ccc(F)c(C(=O)c2c[nH]c3ncc(-c4ccc(Cl)cc4)cc23)c1F [Vemurafenib] | -4.78
52 | CN(C)[C@H]\1[C@@H]2C[C@H]3C(=C(O)\[C@]2(O)C(=O)\C(=C1O)C(N)=O)/C(=O)C4=C(O)C=CC=C4[C@@]3(C)O [Tetracycline hydrochloride] | -5.18
53 | COc1ccc(-c2c(-c3ccc(O)cc3O)n[nH]c2C)cc1 [PDHK RIKEN] | -4.37
54 | COC1=CC=C(C=C1)C/2=C(OC3O[C@@H](C)[C@H](O)[C@@H](O)[C@H]3O)/C(=O)C4=C(O2)C(=C(OC5O[C@H](CO)[C@@H](O)[C@H](O)[C@H]5O)C=C4O)CC=C(C)C (stereo not given in full) [Icariin] | -4.93
55 | NC(=O)[C@@H](CCC(F)(F)F)N(Cc1ccc(-c2ncon2)cc1F)[S+](=O)([O-])c1ccc(Cl)cc1 [Avagacestat] | -4.83
56 | Cc1ccnc(N[S+](=O)([O-])c2ccc(NC(=O)Nc3ccc([S+](=O)([O-])Nc4nccc(C)n4)cc3)cc2)n1 | -4.68
57 | O=C(NOCC(O)CO)c1cc(Br)c(F)c(F)c1Nc1ccc(I)cc1F (stereo not given) | -5.88
58 | COCCOc1ccc2c(c1)ncn2-c1ccc2cccc(N3CCC(N)CC3)c2n1 | -5.23
59 | COc1ccc2cc1Oc1ccc(cc1)C[C@H]1c3cc(c(OC)cc3CCN1C)Oc1c(OC)c(OC)cc3c1[C@H](C2)N(C)CC3 [Tetrandrine] | -4.73
60 | Cc1cccc(-c2nn(C(=S)Nc3ccccc3)cc2-c2ccnc3ccccc23)n1 [A 83-01] | -4.73
61 | Cc1cn([C@H]2C=C[C@@H](CO)O2)c(=O)[nH]c1=O [Stavudine] | -4.37
62 | CCCCCCCN(CC)CCCC(O)c1ccc(NS(C)(=O)=O)cc1.CCCCCCCN(CC)CCCC(O)c1ccc(NS(C)(=O)=O)cc1.O=C(O)/C=C/C(=O)O (stereo not given) [Ibutilide fumarate] | -4.68
63 | O=[S+]([O-])(/N=C/c1c(O)ccc2ccccc12)c1cccs1 | -5.03
64 | CC(NC1=CC=CC=C1)C\2=C\C(=C/N3C(=O)\C=C(/N=C23)N4CCOCC4)C (stereo not given) [TGX-221] | -5.58
65 | N#CC1(c2cccc(C(=O)Nc3cc(Oc4ccc5nc(NC(=O)C6CC6)sc5n4)ccc3F)c2Cl)CC1 [Takeda-6d] | -5.73
